Reference: patent publication US20250090435A1, “PRESERVATIVES FOR COSMETIC AND PHARMACEUTICAL COMPOSITIONS” (priority 2021, published 2025)

Tests used:
[1] = Thickening behavior study: viscosity of surfactant systems; assay type: physicochemical; details: for Viscosity (change after each sequential addition) / Change in viscosity (symbol under Viscosity) / Viscosity (LV3/12 rpm): pH 5.5; for Viscosity: 12% AM, NaCl 1, pH 5.5, additive(s) at 1% w/w each; for Change in viscosity (symbol under Viscosity) / Viscosity (LV3/12 rpm): 14% AM sodium coco sulfate/decyl glucoside system, additive(s) at 1% each
Protocol: Four formulations are shown in the four rightmost columns of Table 14 with ingredients indicated as a percentage by weight. The formulations differ in percentages of sodium chloride, 3-(heptyloxy)propane-1,2-diol, and 3-[(n-octyl)oxy]-1,2-propanediol.
A thickening behavior study was also performed in another basic surfactant system: Anionic/Non Ionic (APG—alkyl polyglucoside). Each column corresponds to a particular formulation with ingredients listed as a percentage by weight. The remainder was water, represented by Qs. % AM indicates % of active matter (e.g. % of dry surfactant).
(§1) A further thickening behavior study was performed in a different basic surfactant system: anionic/amphoteric (CAPB—Cocamidopropyl betaine). Each column corresponds to a particular formulation with ingredients listed as a percentage by weight. The remainder was water, represented by Qs. % AM indicates % of active matter (e.g. % of dry surfactant).
A further thickening behavior study was performed to compare sulfated surfactants and sulfate free surfactants. Each column corresponds to a particular formulation with ingredients listed as a percentage by weight. The remainder was water, represented by Qs. % AM indicates % of active matter (e.g. % of dry surfactant). Sodium chloride, 3-(heptyloxy)propane-1,2-diol, and 3-[(n-octyl)oxy]-1,2-propanediol were added sequentially with the change in viscosity measured after each addition and noted in Table 17 below.
as §1, with “to determine viscosity differences with and without salt (e.g. sodium chloride).” for “in a different basic surfactant system: anionic/amphoteric (CAPB—Cocamidopropyl betaine).”

[2] = Skin irritancy and skin sensitization
[3] = test system: Staphylococcus epidermidis - code souchier C′; experiment: Roll-on deodorant challenge test (ISO 11930, odor-causing bacteria); assay type: cell-based; details: addition of 1% in natural roll-on deodorant
Protocol: The roll-on deodorant challenge tests shown below were conducted in accordance with ISO 11930 except that formulations were tested with bacteria Corynebacterium xerosis—code souchier M′ and Staphylococcus epidermidis—code souchier C′, which are two of the major odor-causing bacteria found in skin flora. The roll-on deodorant formulations used in the challenge tests are described in Tables 3 and 4 above. A non-preserved formulation without 3-(heptyloxy)propane-1,2-diol was used as a negative control, and the high concentration formulation with 1% 3-(heptyloxy)propane-1,2-diol by weight was tested.

microbial growth = experiment: BIOLUMIX assay to screen for preventing microbial growth; assay type: cell-based; details: 1% by weight in cleansing wipe, emulsion wipe, cream, shampoo, roll-on deodorant
Source text: Efficacy of the compositions in preventing microbial growth were screened with a BIOLUMIX assay. The BIOLUMIX assay produces a color change when carbon dioxide, indicative of microbial contamination, is detected in a sample. Non-preserved formulations without 3-(heptyloxy)propane-1,2-diol were used as negative controls, and formulations were used at particular percentages of 3-(heptyloxy)propane-1,2-diol by weight. Passing criteria is meeting criteria A in Table 5.

[4] = Solubility in aqueous systems; assay type: physicochemical; details: compared to 3-(heptyloxy)propane-1,2-diol
[5] = Sulfate free: Na Cocoyl Glutamate 8/Decyl Glucoside 4, 12% AM, added sequentially NaCl 2, 3-(heptyloxy)propane-1,2-diol 1, 3-[(n-octyl)oxy]-1,2-propanediol 1
[6] = Sulfate free: Na Cocoyl Glycinate 8/Decyl Glucoside 4, 12% AM, added sequentially NaCl 2, 3-(heptyloxy)propane-1,2-diol 1, 3-[(n-octyl)oxy]-1,2-propanediol 1
[7] = Sulfate free: Na Lauroyl Sarcosinate 8/Decyl Glucoside 4, 12% AM, added sequentially NaCl 2, 3-(heptyloxy)propane-1,2-diol 1, 3-[(n-octyl)oxy]-1,2-propanediol 1
[8] = Sulfate free: Na Lauryl Glucose Carboxylate 8/Decyl Glucoside 4, 12% AM, added sequentially NaCl 2, 3-(heptyloxy)propane-1,2-diol 1, 3-[(n-octyl)oxy]-1,2-propanediol 1
[9] = Sulfate free: Na Lauryl Sulfoacetate 8/Decyl Glucoside 4, 12% AM, added sequentially NaCl 2, 3-(heptyloxy)propane-1,2-diol 1, 3-[(n-octyl)oxy]-1,2-propanediol 1
[10] = Sulfated: Ammonium Lauryl Sulfate 8/Decyl Glucoside 4, 12% AM, added sequentially NaCl 1, 3-(heptyloxy)propane-1,2-diol 1, 3-[(n-octyl)oxy]-1,2-propanediol 1
[11] = Sulfated: Na Coco Sulfate 8/Decyl Glucoside 4, 12% AM, added sequentially NaCl 1, 3-(heptyloxy)propane-1,2-diol 1, 3-[(n-octyl)oxy]-1,2-propanediol 1
[12] = Sulfated: Na Lauryl Ether Sulfate 8/Decyl Glucoside 4, 12% AM, added sequentially NaCl 1, 3-(heptyloxy)propane-1,2-diol 1, 3-[(n-octyl)oxy]-1,2-propanediol 1
[13] = Sulfated: Na Lauryl Sulfate 8/Decyl Glucoside 4, 12% AM, added sequentially NaCl 1, 3-(heptyloxy)propane-1,2-diol 1, 3-[(n-octyl)oxy]-1,2-propanediol 1
[14] = Ammonium Lauryl Sulfate (ALS) 8/APG 4 system
[15] = Ammonium Lauryl Sulfate (ALS) 10/CAPB 2 system
[16] = Na Cocoyl Sulfate (SCS) 8/APG 4 system
[17] = Na Lauryl Ether Sulfate (SLES) 8/APG 4 system
[18] = Na Lauryl Ether Sulfate (SLES) 10/CAPB 2 system

## [Cl-].[Na+] [NaCl]
[1]; [5]
  Viscosity (change after each sequential addition): ≈
[1]; [6]
  Viscosity (change after each sequential addition): ↑
[1]; [7]
  Viscosity (change after each sequential addition): ≈
[1]; [8]
  Viscosity (change after each sequential addition): ≈
[1]; [9]
  Viscosity (change after each sequential addition): ≈
[1]; [10]
  Viscosity (change after each sequential addition): ↑
[1]; [11]
  Viscosity (change after each sequential addition): ↑
[1]; [12]
  Viscosity (change after each sequential addition): ↑
[1]; [13]
  Viscosity (change after each sequential addition): ↑

## CCCCCCCOCC(O)CO (stereo not drawn) [3-(heptyloxy)propane-1,2-diol]
[1]; [14]
  Viscosity: 260 cps
[1]; [15]
  Viscosity: 2500 cps
[1]; [16]
  Viscosity: 130 cps
[1]; [17]
  Viscosity: 50 cps
[1]; [18]
  Viscosity: 200 cps
[1]; [5]
  Viscosity (change after each sequential addition): ≈
[1]; [6]
  Viscosity (change after each sequential addition): ≈
[1]; [7]
  Viscosity (change after each sequential addition): ≈
[1]; [8]
  Viscosity (change after each sequential addition): ≈
[1]; [9]
  Viscosity (change after each sequential addition): ≈
[1]; [10]
  Viscosity (change after each sequential addition): ↑+
[1]; [11]
  Viscosity (change after each sequential addition): ↑+
[1]; [12]
  Viscosity (change after each sequential addition): ↑+
[1]; [13]
  Viscosity (change after each sequential addition): ↑
[1]; With 1% NaCl
  Change in viscosity (symbol under Viscosity): ↑+
  Viscosity (LV3/12 rpm): 1600 cps
[1]; Without Salt
  Change in viscosity (symbol under Viscosity): ≈
[1]; Without Salt, base without additives 70 cps
  Viscosity (LV3/12 rpm): 80 cps
[2]
  skin irritancy: reduced/no skin irritancy
  skin sensitization: non-skin sensitizer
[3]
  speed of logarithmic reduction of bacteria: increases logarithmic reduction of bacteria such as Staphylococcus faster
Microbial growth
  microbial growth in products: successfully blocks microbial growth

## [Cl-].[Na+] [Sodium Chloride]
[1]; With 1% NaCl
  Change in viscosity (symbol under Viscosity): ↑
  Viscosity (LV3/12 rpm): 280 cps

## CCCCCCCCOCC(O)CO (stereo not drawn) [3-[(n-octyl)oxy]-1,2-propanediol]
[1]; [14]
  Viscosity: 550 cps
[1]; [15]
  Viscosity: 3250 cps
[1]; [16]
  Viscosity: 370 cps
[1]; [17]
  Viscosity: 50 cps
[1]; [18]
  Viscosity: 700 cps
[1]; [5]
  Viscosity (change after each sequential addition): ≈
[1]; [6]
  Viscosity (change after each sequential addition): ≈
[1]; [7]
  Viscosity (change after each sequential addition): ≈
[1]; [8]
  Viscosity (change after each sequential addition): ≈
[1]; [9]
  Viscosity (change after each sequential addition): ≈
[1]; [10]
  Viscosity (change after each sequential addition): ↑++
[1]; [11]
  Viscosity (change after each sequential addition): ↑++
[1]; [12]
  Viscosity (change after each sequential addition): ↑++
[1]; [13]
  Viscosity (change after each sequential addition): ↑++
[4]
  solubility in aqueous systems: lower solubility in aqueous systems
